{
  "source": "patent US10004225B2",
  "about": "“Wearable insect repelling patch” (S. C. Johnson & Son, Inc., priority 2005, dated 2018)",
  "key": {"[1]": {"system": "mosquitoes", "assay": "Field test in southern Florida, one-minute biting count on lower leg of human test subjects wearing patches", "format": "in vivo", "source_text": "We also conducted some field tests of the present invention in southern Florida using patches 10 dosed with metofluthrin. Human test subjects and designated untreated control entered the test site, each test subject being separated by a minimum of 25 meters (approx. 75 feet). Shortly after all test subjects and an untreated control were set up in the test site, a 15 second ‘nuisance’ pre-count was taken by counting or best estimating the number of mosquitoes landing or touching the visual areas on the test suit.\nDirectly after the ‘nuisance’ count, a one-minute biting pre-count of a lower leg was taken. The pre-count began by having each subject roll up one pant leg to the knee then count the number of mosquitoes landing or biting on the exposed skin over a one minute period. Once a mosquito landed, the insect was pushed away (flicked, swatted or other) from the leg.\nAfter the precounts were made, each test subject attached insect repellent patches 10 to predetermined areas on the test suit. The location of the patches is described below.\nMosquito land or bite counts were then made as described above for the pre-counts, with counts taken every 5 minutes for the first 20 minutes. After the 20 minute count, the test subjects and controls moved locations, walking approximately 15 meters. This was followed by their immediately taking a 15-second nuisance and one-minute biting count. Additional counts were then made at 25 and 30 minutes at that new location. After the 30 minute counts, the test subjects and controls moved location again, walking approximately 15 meters. This is followed by their immediately taking a 15-second nuisance and the one-minute biting count. An additional count was then made again at 35 minutes. The test was concluded after the 35 minute count.\nThe patches 10 used in the test were treated with metofluthrin, the 103 cm^2 patches bearing 60 mg and the 51.6 cm^2 patches bearing about 30 mg of metofluthrin. The patch material was selected either from a substrate made of a nylon-type material or from a non-woven cloth made of rayon, polyester, polypropylene, and polyethylene fibers. No difference in performance between the two materials was detected.\nWhen four, 103 cm^2 patch samples were used, the patches were placed on the side of each shoulder and on the outwardly facing side of each knee. For the four, 51.6 cm^2 patch samples, the patches were placed on the side of each shoulder and on the top of the shoe. The 103 cm^2 patches were too big to place on the shoe, and therefore only the 51.6 cm^2 patches were placed there. For the two, 51.6 cm^2 patch testing, one patch was placed on one shoulder and another was placed on the outwardly facing side of the opposing knee.\nThe Average Percent Biting Repellency was calculated using the following formula:\nC2=control count at time corresponding with treatment count\nT1=precount for test area\nT2=test area count at designated time\nThe percent repellency was calculated by the following formula: […]"}, "[2]": {"conditions": "@ 25° C.; cited from earlier work"}},
  "data": [
    {"smiles": "CC=C[C@@H]1[C@@H](C(=O)OCc2c(F)c(F)c(COC)c(F)c2F)C1(C)C", "note": "(racemic) [metofluthrin, 2,3,5,6-tetrafluoro-4-methoxymethylbenzyl (EZ)-(1RS,3RS)-2,2-dimethyl-3-(prop-1-enyl)-cyclopropanecarboxylate]", "values": [
      {"measurement": "Percent Biting Repellency", "setting": "[1]; 2 patches (51.6 cm^2, about 30 mg each), 3 reps, 0 min", "result": 0, "unit": "%"},
      {"measurement": "Percent Biting Repellency", "setting": "[1]; 2 patches (51.6 cm^2, about 30 mg each), 3 reps, 5 min", "result": 42, "unit": "%"},
      {"measurement": "Percent Biting Repellency", "setting": "[1]; 2 patches (51.6 cm^2, about 30 mg each), 3 reps, 10 min", "result": 60, "unit": "%"},
      {"measurement": "Percent Biting Repellency", "setting": "[1]; 2 patches (51.6 cm^2, about 30 mg each), 3 reps, 15 min", "result": 90, "unit": "%"},
      {"measurement": "Percent Biting Repellency", "setting": "[1]; 2 patches (51.6 cm^2, about 30 mg each), 3 reps, 20 min", "result": 81, "unit": "%"},
      {"measurement": "Percent Biting Repellency", "setting": "[1]; 2 patches (51.6 cm^2, about 30 mg each), 3 reps, 21 min, immediately after moving approx. 15 meters", "result": 13, "unit": "%"},
      {"measurement": "Percent Biting Repellency", "setting": "[1]; 2 patches (51.6 cm^2, about 30 mg each), 3 reps, 25 min", "result": 82, "unit": "%"},
      {"measurement": "Percent Biting Repellency", "setting": "[1]; 2 patches (51.6 cm^2, about 30 mg each), 3 reps, 30 min", "result": 81, "unit": "%"},
      {"measurement": "Percent Biting Repellency", "setting": "[1]; 2 patches (51.6 cm^2, about 30 mg each), 3 reps, 31 min, immediately after moving approx. 15 meters", "result": 44, "unit": "%"},
      {"measurement": "Percent Biting Repellency", "setting": "[1]; 2 patches (51.6 cm^2, about 30 mg each), 3 reps, 35 min", "result": 73, "unit": "%"},
      {"measurement": "Percent Biting Repellency", "setting": "[1]; 3 patches (103 cm^2, 60 mg each), 2 reps, 0 min", "result": 0, "unit": "%"},
      {"measurement": "Percent Biting Repellency", "setting": "[1]; 3 patches (103 cm^2, 60 mg each), 2 reps, 5 min", "result": 75, "unit": "%"},
      {"measurement": "Percent Biting Repellency", "setting": "[1]; 3 patches (103 cm^2, 60 mg each), 2 reps, 10 min", "result": 100, "unit": "%"},
      {"measurement": "Percent Biting Repellency", "setting": "[1]; 3 patches (103 cm^2, 60 mg each), 2 reps, 15 min", "result": 100, "unit": "%"},
      {"measurement": "Percent Biting Repellency", "setting": "[1]; 3 patches (103 cm^2, 60 mg each), 2 reps, 20 min", "result": 100, "unit": "%"},
      {"measurement": "Percent Biting Repellency", "setting": "[1]; 3 patches (103 cm^2, 60 mg each), 2 reps, 21 min, immediately after moving approx. 15 meters", "result": 16, "unit": "%"},
      {"measurement": "Percent Biting Repellency", "setting": "[1]; 3 patches (103 cm^2, 60 mg each), 2 reps, 25 min", "result": 84, "unit": "%"},
      {"measurement": "Percent Biting Repellency", "setting": "[1]; 3 patches (103 cm^2, 60 mg each), 2 reps, 30 min", "result": 84, "unit": "%"},
      {"measurement": "Percent Biting Repellency", "setting": "[1]; 3 patches (103 cm^2, 60 mg each), 2 reps, 31 min, immediately after moving approx. 15 meters", "result": 64, "unit": "%"},
      {"measurement": "Percent Biting Repellency", "setting": "[1]; 3 patches (103 cm^2, 60 mg each), 2 reps, 35 min", "result": 100, "unit": "%"},
      {"measurement": "Percent Biting Repellency", "setting": "[1]; 4 patches (103 cm^2), 2 reps, 0 min", "result": 0, "unit": "%"},
      {"measurement": "Percent Biting Repellency", "setting": "[1]; 4 patches (103 cm^2), 2 reps, 5 min", "result": 96, "unit": "%"},
      {"measurement": "Percent Biting Repellency", "setting": "[1]; 4 patches (103 cm^2), 2 reps, 10 min", "result": 100, "unit": "%"},
      {"measurement": "Percent Biting Repellency", "setting": "[1]; 4 patches (103 cm^2), 2 reps, 15 min", "result": 100, "unit": "%"},
      {"measurement": "Percent Biting Repellency", "setting": "[1]; 4 patches (103 cm^2), 2 reps, 20 min", "result": 88, "unit": "%"},
      {"measurement": "Percent Biting Repellency", "setting": "[1]; 4 patches (103 cm^2), 2 reps, 21 min, immediately after moving approx. 15 meters", "result": 33, "unit": "%"},
      {"measurement": "Percent Biting Repellency", "setting": "[1]; 4 patches (103 cm^2), 2 reps, 25 min", "result": 50, "unit": "%"},
      {"measurement": "Percent Biting Repellency", "setting": "[1]; 4 patches (103 cm^2), 2 reps, 30 min", "result": 73, "unit": "%"},
      {"measurement": "Percent Biting Repellency", "setting": "[1]; 4 patches (103 cm^2), 2 reps, 31 min, immediately after moving approx. 15 meters", "result": 22, "unit": "%"},
      {"measurement": "Percent Biting Repellency", "setting": "[1]; 4 patches (103 cm^2), 2 reps, 35 min", "result": 96, "unit": "%"},
      {"measurement": "Percent Biting Repellency", "setting": "[1]; 4 patches (103 cm^2, 60 mg each), 1 rep, 0 min", "result": 0, "unit": "%"},
      {"measurement": "Percent Biting Repellency", "setting": "[1]; 4 patches (103 cm^2, 60 mg each), 1 rep, 5 min", "result": 85, "unit": "%"},
      {"measurement": "Percent Biting Repellency", "setting": "[1]; 4 patches (103 cm^2, 60 mg each), 1 rep, 10 min", "result": 94, "unit": "%"},
      {"measurement": "Percent Biting Repellency", "setting": "[1]; 4 patches (103 cm^2, 60 mg each), 1 rep, 15 min", "result": 100, "unit": "%"},
      {"measurement": "Percent Biting Repellency", "setting": "[1]; 4 patches (103 cm^2, 60 mg each), 1 rep, 20 min", "result": 92, "unit": "%"},
      {"measurement": "Percent Biting Repellency", "setting": "[1]; 4 patches (103 cm^2, 60 mg each), 1 rep, 21 min, immediately after moving approx. 15 meters", "result": 85, "unit": "%"},
      {"measurement": "Percent Biting Repellency", "setting": "[1]; 4 patches (103 cm^2, 60 mg each), 1 rep, 25 min", "result": 81, "unit": "%"},
      {"measurement": "Percent Biting Repellency", "setting": "[1]; 4 patches (103 cm^2, 60 mg each), 1 rep, 30 min", "result": 100, "unit": "%"},
      {"measurement": "Percent Biting Repellency", "setting": "[1]; 4 patches (103 cm^2, 60 mg each), 1 rep, 31 min, immediately after moving approx. 15 meters", "result": 61, "unit": "%"},
      {"measurement": "Percent Biting Repellency", "setting": "[1]; 4 patches (103 cm^2, 60 mg each), 1 rep, 35 min", "result": 94, "unit": "%"},
      {"measurement": "personal area repellency in field test (result in words)", "setting": "[1]; patch sizes, dosages and locations of Example 3, even after user moved to a new location", "result": "can successfully provide personal area repellency within a very brief time"},
      {"measurement": "Vapor pressure", "setting": "[2]", "result": "3.4 × 10^−6 mmHg @"}
    ]}
  ]
}
